9 compounds from ChEMBL document CHEMBL5356932, “Research and development of N,N'-diarylureas as anti-tumor agents” (RSC Med Chem, 2023) can be followed below.

SMILES strings stand for the structures.

Usually IC50 stands for the concentration needed to halve the response being measured.

Series [1] relates to MCF7. As to the kind of experiment: Antiproliferative activity against human MCF7 cells assessed as cell growth inhibition. It is filed as functional, cell-based.
Series [2] deals with MDA-MB-231. Put plainly: Antiproliferative activity against human MDA-MB-231 cells assessed as cell growth inhibition. It counts as functional, cell-based.
The target of series [3] is T1, Vascular endothelial growth factor receptor 2 (Homo sapiens, UniProt P35968). As to the kind of experiment: Inhibition of human VEGFR.
Series [4] addresses Angiopoietin-1 receptor (Homo sapiens, UniProt Q02763). Put plainly: Inhibition of TIE2 (unknown origin).
Series [5] is described as follows: Cytotoxicity against HUVEC cells assessed as reduction in cell viability and measured after 24 hrs by MTT assay. It is filed as toxicity, cell-based. Particulars: human.
Series [6] has as its system MCF7. Put plainly: Cytotoxicity against human MCF7 cells assessed as reduction in cell viability incubated for 24 hrs by MTT assay. As to conditions: MCF7, 24 h. It is filed as functional, cell-based. A general note: Tetrazolium dyes change colour on reduction, which living cells bring about.
Series [7] relates to HepG2. As to the kind of experiment: Cytotoxicity against human HepG2 cells assessed as reduction in cell viability incubated for 24 hrs by MTT assay. As to conditions: HepG2, 24 h. It is filed as functional, cell-based.
In series [8] the test system is HUVEC. Put plainly: Anti-angiogenesis activity in HUVEC cells. It is filed as functional, cell-based. As to conditions: Homo sapiens.
For series [9], the target named is T1, Vascular endothelial growth factor receptor 2. Put plainly: Inhibition of VEGFR2 in HUVEC cells. It counts as cell-based.
The nature of series [10]: Inhibition of angiogenesis in HUVEC cells assessed as reduction in capillary tube formation after 6 hrs by phase contrast microscopy. It counts as functional, cell-based. As to conditions: Homo sapiens.
For series [11], the system named is EA.hy 926. Put plainly: Antiproliferative activity against human EA.hy 926 cells assessed as reduction in cell viability incubated for 48 hrs by MTT assay. It is filed as functional, cell-based. Particulars: EA.hy 926, 48 h.
For series [12], the system named is HUVEC. As to the kind of experiment: Antiproliferative activity against HUVEC cells assessed as reduction in cell viability measured after 48 hrs by MTT assay. It counts as functional, cell-based. As to conditions: Homo sapiens.
Series [13] deals with NCI-H1975. Put plainly: Antiproliferative activity against human NCI-H1975 cells assessed as reduction in cell viability measured after 48 hrs by MTT assay. It counts as functional, cell-based. Particulars: NCI-H1975, 48 h.
The subject of series [14] is A549. Put plainly: Antiproliferative activity against human A549 cells assessed as reduction in cell viability measured after 48 hrs by MTT assay. As to conditions: A549, 48 h. It is filed as functional, cell-based.

T1 sequence (P35968 whole entry): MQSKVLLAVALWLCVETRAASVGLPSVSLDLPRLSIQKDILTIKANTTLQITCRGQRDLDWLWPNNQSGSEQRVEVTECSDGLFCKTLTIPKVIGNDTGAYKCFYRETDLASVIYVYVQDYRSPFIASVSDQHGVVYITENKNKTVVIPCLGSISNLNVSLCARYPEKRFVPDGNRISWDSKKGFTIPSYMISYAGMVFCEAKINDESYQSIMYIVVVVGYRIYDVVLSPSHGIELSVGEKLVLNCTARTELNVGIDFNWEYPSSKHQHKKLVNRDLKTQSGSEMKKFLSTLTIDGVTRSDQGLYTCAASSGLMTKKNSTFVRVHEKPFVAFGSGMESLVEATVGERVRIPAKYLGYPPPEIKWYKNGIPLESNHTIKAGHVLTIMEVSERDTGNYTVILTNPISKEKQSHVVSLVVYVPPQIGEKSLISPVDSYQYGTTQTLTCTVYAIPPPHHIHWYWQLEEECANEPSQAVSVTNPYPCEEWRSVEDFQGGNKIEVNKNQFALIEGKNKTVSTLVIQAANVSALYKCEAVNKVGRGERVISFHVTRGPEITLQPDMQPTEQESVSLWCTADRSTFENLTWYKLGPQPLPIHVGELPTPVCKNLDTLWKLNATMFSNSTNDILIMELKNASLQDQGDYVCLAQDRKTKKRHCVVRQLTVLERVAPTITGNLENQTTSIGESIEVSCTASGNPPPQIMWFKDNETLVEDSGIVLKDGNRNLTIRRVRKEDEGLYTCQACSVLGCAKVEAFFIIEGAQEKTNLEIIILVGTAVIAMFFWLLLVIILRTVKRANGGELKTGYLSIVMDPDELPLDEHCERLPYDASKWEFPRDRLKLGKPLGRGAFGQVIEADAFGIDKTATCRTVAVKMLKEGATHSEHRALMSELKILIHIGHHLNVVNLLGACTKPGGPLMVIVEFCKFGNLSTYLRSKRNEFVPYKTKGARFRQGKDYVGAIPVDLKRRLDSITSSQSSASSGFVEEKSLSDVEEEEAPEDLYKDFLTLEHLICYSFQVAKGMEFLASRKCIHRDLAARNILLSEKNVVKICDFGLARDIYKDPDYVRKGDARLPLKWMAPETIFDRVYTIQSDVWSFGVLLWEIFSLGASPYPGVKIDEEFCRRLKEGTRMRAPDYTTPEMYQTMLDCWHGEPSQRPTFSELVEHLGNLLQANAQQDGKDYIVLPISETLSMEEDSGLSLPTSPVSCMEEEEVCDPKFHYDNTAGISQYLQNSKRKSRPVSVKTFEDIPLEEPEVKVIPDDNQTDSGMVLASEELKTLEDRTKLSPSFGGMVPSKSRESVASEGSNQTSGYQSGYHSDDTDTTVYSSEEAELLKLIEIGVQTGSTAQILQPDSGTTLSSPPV
Sequence of Angiopoietin-1 receptor (Q02763 whole entry): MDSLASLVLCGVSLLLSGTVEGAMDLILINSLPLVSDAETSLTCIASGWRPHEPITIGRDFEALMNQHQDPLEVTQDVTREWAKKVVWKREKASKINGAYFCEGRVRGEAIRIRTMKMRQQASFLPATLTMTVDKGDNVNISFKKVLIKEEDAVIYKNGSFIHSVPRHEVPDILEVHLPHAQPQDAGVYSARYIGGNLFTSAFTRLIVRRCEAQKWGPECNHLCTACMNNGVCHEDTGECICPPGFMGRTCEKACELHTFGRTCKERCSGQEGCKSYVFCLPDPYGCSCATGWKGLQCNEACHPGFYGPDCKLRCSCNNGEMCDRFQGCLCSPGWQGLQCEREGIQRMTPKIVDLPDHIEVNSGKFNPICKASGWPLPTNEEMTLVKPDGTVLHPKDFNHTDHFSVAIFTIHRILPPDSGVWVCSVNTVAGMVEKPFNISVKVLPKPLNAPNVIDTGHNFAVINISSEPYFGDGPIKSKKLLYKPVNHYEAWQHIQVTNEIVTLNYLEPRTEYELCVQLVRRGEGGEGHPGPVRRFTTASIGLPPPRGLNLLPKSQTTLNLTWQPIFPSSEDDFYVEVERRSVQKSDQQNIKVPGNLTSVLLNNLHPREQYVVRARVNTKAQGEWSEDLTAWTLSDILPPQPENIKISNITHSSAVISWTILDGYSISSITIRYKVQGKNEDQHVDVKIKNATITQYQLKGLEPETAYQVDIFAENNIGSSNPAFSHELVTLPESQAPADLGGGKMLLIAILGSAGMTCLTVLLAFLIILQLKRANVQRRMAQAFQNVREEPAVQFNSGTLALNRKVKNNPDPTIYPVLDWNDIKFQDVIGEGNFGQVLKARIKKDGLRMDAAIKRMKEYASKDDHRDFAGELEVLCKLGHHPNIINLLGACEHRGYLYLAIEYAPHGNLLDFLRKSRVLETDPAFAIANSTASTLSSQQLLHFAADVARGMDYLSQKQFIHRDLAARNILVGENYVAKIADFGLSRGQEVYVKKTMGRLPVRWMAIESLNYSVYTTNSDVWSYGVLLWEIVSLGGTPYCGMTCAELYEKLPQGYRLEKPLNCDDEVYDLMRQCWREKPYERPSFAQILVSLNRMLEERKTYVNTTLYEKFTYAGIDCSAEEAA

Consider `O=C(Nc1cccc(Sc2ccnc3ccsc23)c1)Nc1cccc(C(F)(F)F)c1`, for which the IC50 in series [1] was determined as 1.2 µM; in [2], 5 µM.

As for `COC(=O)Nc1nc2cc(Oc3ccc(NC(=O)Nc4cc(F)ccc4C(F)(F)F)cc3)ccc2[nH]1`, the IC50 in series [3] is 3.5 µM; in series [4], 0.0069 µM.

Consider `Cc1nc(Nc2ccc(NC(=O)Nc3ccc(F)c(Cl)c3)cc2)c2nc(-c3ccc(OCCCN4CCN(C)CC4)cc3)oc2n1`, for which, in series [5], the IC50 at 24 h is 12.4 µM.

For `CSc1cccc(NC(=O)Nc2ccc(Oc3ccc4[nH]c(=O)c(=O)[nH]c4c3)cc2C)c1`, the IC50 in series [6] was found to be 14 µM; in series [7], 17 µM.

`Cc1nc(Nc2ccc(NC(=O)Nc3cccc(F)c3)cc2)c2nc(-c3ccccc3)sc2n1`: the figures for the IC50 in series [8], in series [9] and in [10] were 5.3 µM, 73.2 µM and 5.3 µM, respectively.

`O=C(Nc1ccc(-c2cccc(NC(=O)C3CC3)n2)cc1)Nc1ccc(Cl)c(C(F)(F)F)c1`: the IC50 in [11] came to 14.5 µM.

Regarding `O=C(Nc1ccc(-c2cccc(NC(=O)C3CC3)n2)cc1)Nc1cccc(C(F)(F)F)c1`, the IC50 in series [11] was 16.1 µM.

As to `O=C(Nc1ccc(OC(F)(F)F)cc1)Nc1ccc2nc(-c3ccccc3Cl)oc2c1`, the IC50 in [12] came out at 8.46 µM; in [13], 1.4 µM; in series [14], 7.61 µM.

In turn, `CNC(=O)c1cc(Oc2ccc(NC(=O)Nc3ccc(Cl)c(C(F)(F)F)c3)cc2)ccn1` [SORAFENIB] showed an IC50 in [8] of 73.2 µM.
